In PMC11201590, “Enhancing Selective Antimicrobial and Antibiofilm Activities of Melittin through 6-Aminohexanoic Acid Substitution” (Biomolecules, 2024):
≈ marks a conversion by molar mass, not a printed value. Where two headings read alike, the source gives them in different places.

Experiments:
[1] = system: E. coli (KCTC 1682); test: Outer membrane permeability (NPN uptake); type: cell-based, Escherichia coli; conditions: varying peptide concentrations; NPN fluorescence
Procedure: The fluorescent probe NPN (1-N-phenylnaphthylamine) was utilized to measure the outer membrane permeability of Gram-negative E. coli. Mid-log phase E. coli cells were diluted to an OD600 of 0.05 after being washed three times in a buffer containing 5 mM HEPES, 20 mM glucose, and 5 mM KCN at pH 7.4. A 1 mM stock solution of NPN was prepared by dissolving NPN in acetone. To achieve a final concentration of 10 µM, 30 μL of the stock solution was added to the bacterial suspension. […] Fluorescence was then measured over time after the peptides were added, with the concentration increasing until it reached a steady state. ONPG (o-nitrophenyl-β-[…]), a […] substrate used for cytoplasmic membrane β-galactosidase enzyme, was employed to assess the release of β-galactosidase from E. coli ML-35, aiming to determine the inner membrane permeability of peptides. A 1.5 mM solution of ONPG was added to a sample buffer consisting of 10 mM sodium phosphate and 100 mM NaCl at pH 7.4, which was used to suspend mid-log phase E. coli ML-35 bacteria to an OD600 of 0.5. […] The fluorescence of ONPG increases when it is hydrolyzed to form o-nitrophenol. The permeability of the inner membrane of E. coli ML-35 bacteria was assessed by the influx of ONPG, a substance that was then broken down into o-nitrophenol, forming a yellow product, by the presence of β-galactosidase in the cytoplasm.

[2] = system: S. aureus; test: SYTOX green uptake assay; type: cell-based, Staphylococcus aureus; conditions: negative control
Procedure: The SYTOX green experiment was utilized to assess the impact of peptides on bacterial membrane permeabilization. S. aureus cells in the mid-log phase (OD600 = 0.5) were washed three times in a buffer containing 20 mM glucose and 5 mM HEPES (pH 7.4). Subsequently, the bacterial cell suspensions were diluted in a buffer consisting of 5 mM HEPES, 100 mM KCl, and 20 mM glucose, at pH 7.4, to a concentration of 1 × 10^6 CFU/mL. After incubating for fifteen minutes in complete darkness, 0.5 μM SYTOX green was added to the bacterial suspensions. The Shimadzu fluorescence spectrophotometer RF-5300PC (Shimadzu Scientific Instruments, Kyoto, Japan) was employed to monitor SYTOX green fluorescence following the addition of peptides at a concentration of 2 × MIC. In the Shimadzu fluorescence spectrophotometer, the excitation and emission wavelengths were set at 485 nm and 520 nm, respectively.

[3] = system: RAW 264.7 macrophage cells; test: Cytotoxicity, MTT assay; type: cell-based, mouse; conditions: 4 µM peptide, RAW 264.7, 48 h, triplicate
Procedure: We conducted the MTT assay (3-(4,5-dimethylthiazol-2-yl)-2,5-diphenyltetrazolium bromide) dye reduction experiment against RAW 264.7 macrophage cells to evaluate the cytotoxicity of the peptides, following previously published methods. RAW 264.7 cells were cultured for 24 h in the presence of 5% CO2 at 37 °C after seeding them in 96-well plates (2 × 10^4 cells/well). Subsequently, the peptides were treated at increasing concentrations and allowed to interact with the cells for 48 h. Following the incubation period, 20 μL of MTT solution (5 mg/mL in PBS) was added to each well, and the plate was further incubated at 37 °C for 4 h. The absorbance was then measured at 550 nm using a microplate ELISA reader after dissolving the formazan crystals in dimethyl sulfoxide (DMSO). Treatment with 0.1% Triton X-100 served as a positive control for 100% cytotoxicity. Each experiment was performed in triplicate.

[4] = system: S. epidermidis (KCTC 1917); type: cell-based, Staphylococcus epidermidis; conditions: CLSI broth dilution, MHB, 37 °C, 18 to 24 h
Procedure: (§1) Peptides were assessed for their antibacterial activity against four Gram-positive and four Gram-negative bacteria, including drug-resistant strains, in accordance with Clinical and Laboratory Standards Institute (CLSI) guidelines. The minimum inhibitory concentration (MIC) was determined using a microtiter broth dilution method. All bacterial strains were incubated overnight at 37 °C. Cultured bacteria were then diluted 10-fold in Muller–Hinton Broth (MHB) medium (Difco, Detroit, MI, USA) and incubated for 3 h to reach mid-log phase. Following the establishment of mid-log phase cultures, bacteria were inoculated into sterile 96-well plates containing serially diluted peptides. The MIC was defined as the lowest concentration of peptides that prevented observable turbidity after incubation of the plates at 37 °C for 18 to 24 h.

[5] = system: MRSA; type: cell-based, Staphylococcus aureus
Procedure: (§2) We assessed the antibiofilm activity of the peptides by determining their minimum biofilm eradication concentration (MBEC) and minimum biofilm inhibition concentration (MBIC) against drug-resistant bacteria, including MDRPA and MRSA, as previously described. A 96-well plate containing a subculture of 1 × 10^6 CFU/200 μL of bacteria was incubated overnight at 37 °C with or without peptides to test for biofilm inhibition and eradication. The untreated culture served as the negative control, and LL-37 was used as the control peptide.

[6] = system: four Gram-positive and four Gram-negative bacteria; type: cell-based; conditions: over the eight strains of Table 2
Procedure: as §1

[7] = system: MDRPA; type: cell-based, Pseudomonas aeruginosa
Procedure: as §2

[8] = 8 to 16 µM, sentence does not tell MRSA and MDRPA apart

Compound: Buforin-2
- outer membrane permeability [1]: No appreciable outer membrane permeability
- effect on SYTOX green fluorescence intensity [2]: did not affect fluorescence intensity

Compound: CC[C@H](C)[C@H](NC(=O)CN)C(=O)NCC(=O)N[C@@H](C)C(=O)N[C@H](C(=O)N[C@@H](CC(C)C)C(=O)N[C@@H](CCCCN)C(=O)N[C@H](C(=O)N[C@@H](CC(C)C)C(=O)N[C@H](C(=O)N[C@H](C(=O)NCC(=O)N[C@@H](CC(C)C)C(=O)N1CCC[C@H]1C(=O)N[C@@H](C)C(=O)N[C@@H](CC(C)C)C(=O)N[C@H](C(=O)N[C@@H](CO)C(=O)N[C@@H](Cc1c[nH]c2ccccc12)C(=O)N[C@H](C(=O)N[C@@H](CCCCN)C(=O)N[C@@H](CCCNC(=N)N)C(=O)N[C@@H](CCCCN)C(=O)N[C@@H](CCCNC(=N)N)C(=O)N[C@@H](CCC(N)=O)C(=O)N[C@@H](CCC(N)=O)C(N)=O)[C@@H](C)CC)[C@@H](C)CC)[C@@H](C)O)[C@@H](C)O)C(C)C)C(C)C [Melittin]
- cell survival rate [3]: less than 10%
- MIC [4]: 8 µM (≈ 22.8 µg/mL)
- inhibition of biofilm formation ([5]; MRSA, 4 µM peptide): ~90%
- GM, geometric mean of the MIC [6]: 10.5 µM
- inhibition of biofilm formation ([7]; MDRPA, 8 µM peptide): ~90%

Compound: CC[C@H](C)[C@H](NC(=O)[C@H](CCCCN)NC(=O)[C@H](CCC(=O)O)NC(=O)[C@H](CCCCN)NC(=O)[C@H](CO)NC(=O)[C@H](CCCCN)NC(=O)[C@H](CCCNC(=N)N)NC(=O)[C@H](Cc1ccccc1)NC(=O)[C@H](Cc1ccccc1)NC(=O)[C@H](CC(=O)O)NC(=O)CNC(=O)[C@H](CC(C)C)NC(=O)[C@@H](N)CC(C)C)C(=O)NCC(=O)N[C@@H](CCCCN)C(=O)N[C@@H](CCC(=O)O)C(=O)N[C@@H](Cc1ccccc1)C(=O)N[C@@H](CCCCN)C(=O)N[C@@H](CCCNC(=N)N)C(=O)N[C@H](C(=O)N[C@H](C(=O)N[C@@H](CCC(N)=O)C(=O)N[C@@H](CCCNC(=N)N)C(=O)N[C@H](C(=O)N[C@@H](CCCCN)C(=O)N[C@@H](CC(=O)O)C(=O)N[C@@H](Cc1ccccc1)C(=O)N[C@@H](CC(C)C)C(=O)N[C@@H](CCCNC(=N)N)C(=O)N[C@@H](CC(N)=O)C(=O)N[C@@H](CC(C)C)C(=O)N[C@H](C(=O)N1CCC[C@H]1C(=O)N[C@@H](CCCNC(=N)N)C(=O)N[C@H](C(=O)N[C@@H](CCC(=O)O)C(=O)N[C@@H](CO)C(=O)O)[C@@H](C)O)C(C)C)[C@@H](C)CC)C(C)C)[C@@H](C)CC [LL-37]
- inhibition of biofilm formation [5, 8]: approximately 50%
- inhibition of biofilm formation [7, 8]: approximately 50%
